In PubChem BioAssay (NCI) one finds GI50 and TGI data, which are given here for 23 compounds.

The structures appear in SMILES notation. Several values for one entry are separate records, joined by “and”; a condition that tells them apart may be missing. Equal values may be shown once.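 Exposure lasted 48 hours, with cells grown in 96-well plates and compounds tested at five concentrations. The concentration for 50% growth inhibition is given as GI50. TGI denotes the concentration required for complete inhibition of growth.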

The test system of the first assay is SK-MEL-2 melanoma. In words: inhibition of tumour cell growth, NCI panel, 48 h.
In the case of `CC1=C(C(=O)Nc2ccc(Cl)c(Cl)c2)C(c2cccc(Oc3ccccc3)c2)NC(=O)N1` (stereo not drawn), the GI50 was 5.68 µM and the TGI came out at 17.9 µM.
`CC1COC(C)(C)P(=O)(c2ccccc2)C1` (stereo not drawn) returned a TGI of over 100 µM.
Consider `Cc1ccc(S(=O)(=O)c2ccc(N)cc2)cc1`, for which the TGI was over 100 µM.
With `COc1ccc(O)c(C(=O)c2ccc(C(=O)N[C@H]3CCCNC[C@@H]3NC(=O)c3ccncc3)cc2)c1F`, the GI50 was 4.2 µM and the TGI was over 22.4 µM.
On the same counts, the results for `COc1ccc(-n2c(C)cc(-c3ccccc3)c2C)cc1` are 1.7 µM and 3.93 µM.
On to `CCOP(=O)(OCC)OC1C=CC2CCC1C2` (stereo not drawn), for which the TGI is over 100 µM.
As for `CCOc1ccncc1[N+](=O)[O-]`, the TGI is over 100 µM.
Turning to `COc1c[c]([Hg][O]C(C)=O)c(OC)c(NC(=O)CC(C)=O)[c]1[Hg][O]C(C)=O`, the GI50 was 13.8 µM and the TGI was found to be 28.2 µM.
As to `O=C(/C=C/c1ccccc1Cl)NC1C=Nc2ccc([N+](=O)[O-])cc2NC1` (stereo not drawn), the TGI was over 100 µM.
The same measure, in the same setting: to `CCCO/S(=N\S(=O)(=O)c1ccccc1)c1ccccc1[N+](=O)[O-]` (stereo not drawn) belongs over 100 µM.
The same measure, in the same setting: to `Cc1ccc(C)c(N=C2NC(=O)C(CC(=O)Nc3ccc(Cl)cc3Cl)S2)c1` (stereo not drawn) belongs over 100 µM.
Consider `O=C1NC(=O)C(c2cccc([N+](=O)[O-])c2)=C1Nc1cc(Cl)c(O)c(Cl)c1`, for which the GI50 was over 19.8 µM and the TGI is over 25 µM.
On the same counts, the results for `NC(=O)OCCn1cc(-c2nc(-c3c[nH]c4ncccc34)cs2)c2ccccc21` are 1.52 µM and 3.96 µM.
The corresponding values for `COc1ccc(CCNC(=O)c2ccc(NC3=C(Cl)C(=O)N(Cc4ccccc4)C3=O)cc2)cc1OC` are 16.8 µM and 54.1 µM.
`Cc1nc([N+](=O)[O-])cn1CC(=N)N`: the TGI was over 100 µM.
On to `O=CN1CCN(CC(O)CN2CCCCC2)CC1` (stereo not drawn), for which the TGI is over 100 µM.
For the compound `O=Cc1ccc2c(c1-c1c(C=O)ccc3c1OCO3)OCO2`, the TGI is over 100 µM.
Still for that read-out and setting: with `CC(=O)O[C@H]1CCC2[C@@H]3CCC4Nc5[nH]ncc5C[C@]4(C)C3CC[C@@]21C` (stereo partly drawn) the figure was over 100 µM.

The subject of a further assay is SNB-19 CNS. Put plainly: inhibition of tumour cell growth, NCI panel, 48 h.
As to `CCn1c(=O)c2c(=O)c3c4c(oc3oc2c2ccccc21)C(=O)c1ccccc1C4=O`, the GI50 is over 57.7 µM and the TGI was over 100 µM.
As for `Cc1nc(-[n+]2nc(-c3ccncc3)nn2-c2ccccc2)sc1C`, the TGI was over 100 µM.
As for `COc1cc2c(c(OC)c1OC)-c1ncc3cc4c(cc3c1C2)OCO4`, the GI50 was over 100 µM and the TGI is over 100 µM.
With `CC1=C(C(=O)Nc2ccc(Cl)c(Cl)c2)C(c2cccc(Oc3ccccc3)c2)NC(=O)N1` (stereo not drawn), the GI50 was 20.1 µM and the TGI was over 50 µM.
Regarding `CC1COC(C)(C)P(=O)(c2ccccc2)C1` (stereo not drawn), the TGI was over 100 µM.
Consider `COc1ccc(O)c(C(=O)c2ccc(C(=O)N[C@H]3CCCNC[C@@H]3NC(=O)c3ccncc3)cc2)c1F`, for which the GI50 was 10.4 µM and the TGI is over 25 µM.
On the same counts, the results for `COc1ccc(-n2c(C)cc(-c3ccccc3)c2C)cc1` are 8.41 µM and over 100 µM.
`CCOP(=O)(OCC)OC1C=CC2CCC1C2` (stereo not drawn) showed a TGI of over 100 µM.
Same read-out and setting: with `CCOc1ccncc1[N+](=O)[O-]` the figure was over 100 µM.
Take `COc1c[c]([Hg][O]C(C)=O)c(OC)c(NC(=O)CC(C)=O)[c]1[Hg][O]C(C)=O`: the GI50 is 5.56 µM and the TGI came to 12.3 µM.
For the compound `O=C(Nc1ccc(F)cc1)c1cc(S(=O)(=O)Nc2nc3ccccc3o2)c(SCc2ccccc2)cc1Cl`, the GI50 was 47 µM and the TGI is over 100 µM.
Compound `O=C(/C=C/c1ccccc1Cl)NC1C=Nc2ccc([N+](=O)[O-])cc2NC1` (stereo not drawn) came in with a TGI of over 100 µM.
As for `CCCO/S(=N\S(=O)(=O)c1ccccc1)c1ccccc1[N+](=O)[O-]` (stereo not drawn), the TGI was over 100 µM.
On the same count and under the same terms, to `Cc1ccc(C)c(N=C2NC(=O)C(CC(=O)Nc3ccc(Cl)cc3Cl)S2)c1` (stereo not drawn) belongs over 100 µM.
For `O=C1NC(=O)C(c2cccc([N+](=O)[O-])c2)=C1Nc1cc(Cl)c(O)c(Cl)c1`, the GI50 is over 25 µM and the TGI was over 25 µM.
As to `COC(=O)[C@@H](C)C[C@H](Cc1ccccc1)NC(=O)c1csc([C@@H](C[C@H](C(C)C)N(C)C(=O)[C@@H](NC(=O)[C@H]2CCCCN2C)C2CCCCC2)OC(C)=O)n1`, the GI50 is 0.000718 µM and 0.0025 µM; the TGI was over 25 µM.
With `NC(=O)OCCn1cc(-c2nc(-c3c[nH]c4ncccc34)cs2)c2ccccc21`, the GI50 was 2.57 µM and the TGI was determined as 43.8 µM.
As to `COc1ccc(CCNC(=O)c2ccc(NC3=C(Cl)C(=O)N(Cc4ccccc4)C3=O)cc2)cc1OC`, the GI50 is 27.5 µM and the TGI is over 100 µM.
Compound `Cc1nc([N+](=O)[O-])cn1CC(=N)N` displayed a TGI of over 100 µM.
The same measure, in the same setting: with `O=CN1CCN(CC(O)CN2CCCCC2)CC1` (stereo not drawn) the figure was over 100 µM; with `O=Cc1ccc2c(c1-c1c(C=O)ccc3c1OCO3)OCO2`, over 100 µM; with `CC(=O)O[C@H]1CCC2[C@@H]3CCC4Nc5[nH]ncc5C[C@]4(C)C3CC[C@@]21C` (stereo partly drawn), over 100 µM.

The test system of a further assay is HOP-92 NSCLC. In words: inhibition of tumour cell growth, NCI panel, 48 h.
Regarding `CC1=C(C(=O)Nc2ccc(Cl)c(Cl)c2)C(c2cccc(Oc3ccccc3)c2)NC(=O)N1` (stereo not drawn), the GI50 was 24.6 µM and the TGI was over 50 µM.
The corresponding values for `O=C(Nc1ccc(F)cc1)c1cc(S(=O)(=O)Nc2nc3ccccc3o2)c(SCc2ccccc2)cc1Cl` are 18.5 µM and 42.4 µM.
On to `COC(=O)[C@@H](C)C[C@H](Cc1ccccc1)NC(=O)c1csc([C@@H](C[C@H](C(C)C)N(C)C(=O)[C@@H](NC(=O)[C@H]2CCCCN2C)C2CCCCC2)OC(C)=O)n1`, for which the GI50 was 0.000977 µM and 0.0025 µM; the TGI was determined as 0.0112 µM.
With `NC(=O)OCCn1cc(-c2nc(-c3c[nH]c4ncccc34)cs2)c2ccccc21`, the GI50 is 0.668 µM and the TGI stood at 3.71 µM.
The corresponding values for `COc1ccc(CCNC(=O)c2ccc(NC3=C(Cl)C(=O)N(Cc4ccccc4)C3=O)cc2)cc1OC` are 2.22 µM and 5.75 µM.
